“And” between values parts separate entries of the source, which are not always exact repeats. Identical values can stand only once.
How the values were obtained:
[1] = target: T1, Biotinylated PRDM9 (amino acids 195–415) (Homo sapiens, UniProt Q9NQV7); assay: Surface plasmon resonance (SPR) binding; design: key to SPR steady state response, raw data (Y): response units (RU); conditions: for SPR steady state response, raw data (Y): 350 µM SAM, Exp1–4
T1 construct: Biotinylated PRDM9 (amino acids 195–415)
T1 sequence (Q9NQV7 195-415): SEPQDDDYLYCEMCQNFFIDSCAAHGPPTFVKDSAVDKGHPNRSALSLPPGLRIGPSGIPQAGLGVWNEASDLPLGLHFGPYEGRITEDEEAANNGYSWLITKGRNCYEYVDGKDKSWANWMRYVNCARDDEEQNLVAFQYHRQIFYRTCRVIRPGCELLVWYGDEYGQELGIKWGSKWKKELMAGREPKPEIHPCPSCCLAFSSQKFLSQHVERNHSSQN
Experimental: Biotinylated PRDM9 (amino acids 195–415) was immobilized on the flow cell of a SA sensor chip in 1x HBS-EP buffer, yielding 5700 RU. Using the buffer with 0.5% DMSO, 350 µM SAM and single cycle kinetic with 60 s contact time and a dissociation time of 120 s at a flow rate of 75 µL/min. […] Only binding to PRDM9 and PRDM7 with ∆Tm of higher than 2 °C was observed. […] All (c–e) experiments were performed in triplicate (n = 3) and data points are presented as average ± standard deviation. Source data are provided as a Source Data file.
Binding studies by SPR were performed using a Biacore T200 (GE Health Sciences Inc.) at 20 °C. Biotinylated PRDM9 was captured onto a flow cell of a streptavidin-conjugated SA chip at approximately 5000 response units (RU) according to manufacturer’s protocol while another flow cell was left empty for reference subtraction. […]
in the presence of SAM are the same as presented in figure 2 (a and b) within the main text. The experiments were performed in quadruplicate in the presence of 350 µM SAM (5x Km) or 750 µM SAH (5x IC50). Biotinylated PRDM9 (195-415aa) was immobilized on the flow cell of an SA sensor chip in 1x HBS-EP buffer, yielding 5700 RU. Using the buffer with 0.5% DMSO, 350 µM SAM or 750 µM SAH and single cycle kinetics with 60 s contact time and a dissociation time of 120 s at a flow rate of 75 µL/min. […]
and at 20 µM in the presence of SAH as the highest concentration. Dilution factor of 0.33 was used to yield 5 concentrations.

PRDM9 = PRDM9 (Homo sapiens, UniProt Q9NQV7); assay: PRDM9 cellular assay: H3K4me3 of exogenous H3-GFP in MCF7 cells (western blot); type: cell-based; conditions: for H3K4me3/GFP - western blot: MCF7, 20 h, replicates
Chain of PRDM9 (Q9NQV7 whole entry): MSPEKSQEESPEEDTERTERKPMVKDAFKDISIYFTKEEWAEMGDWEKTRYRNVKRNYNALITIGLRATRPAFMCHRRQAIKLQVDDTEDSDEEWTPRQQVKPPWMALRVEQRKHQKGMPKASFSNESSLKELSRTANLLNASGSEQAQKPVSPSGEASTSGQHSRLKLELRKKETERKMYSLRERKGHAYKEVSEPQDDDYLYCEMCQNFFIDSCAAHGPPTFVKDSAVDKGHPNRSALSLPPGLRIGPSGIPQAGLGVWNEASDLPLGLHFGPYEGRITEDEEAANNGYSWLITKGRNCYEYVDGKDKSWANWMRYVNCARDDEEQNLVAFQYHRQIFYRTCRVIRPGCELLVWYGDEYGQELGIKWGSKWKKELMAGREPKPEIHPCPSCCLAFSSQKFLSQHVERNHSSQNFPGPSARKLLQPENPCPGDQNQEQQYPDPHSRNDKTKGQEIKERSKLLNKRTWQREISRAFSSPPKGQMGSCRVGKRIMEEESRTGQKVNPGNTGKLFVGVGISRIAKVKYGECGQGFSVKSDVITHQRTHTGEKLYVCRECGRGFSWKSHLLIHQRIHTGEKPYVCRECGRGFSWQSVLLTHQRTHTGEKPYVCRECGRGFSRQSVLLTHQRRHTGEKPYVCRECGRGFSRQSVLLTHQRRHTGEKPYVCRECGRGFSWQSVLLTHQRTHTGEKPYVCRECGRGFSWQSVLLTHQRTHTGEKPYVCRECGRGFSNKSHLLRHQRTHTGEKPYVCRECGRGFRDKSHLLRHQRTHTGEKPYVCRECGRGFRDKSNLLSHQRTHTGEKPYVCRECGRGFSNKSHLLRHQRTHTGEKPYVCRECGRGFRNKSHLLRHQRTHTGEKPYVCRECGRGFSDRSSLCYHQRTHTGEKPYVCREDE
Experimental: HEK293T (kind gift from Sam Benchimol, York University), or MCF7 (ATCC® HTB-22™), cells were plated (12 well plates) and next day co-transfected with 0.1 (HEK293T) or 0.2 (MCF7) µg of GFP-tagged histone H3 and with 0.1 (HEK293T) or 0.2 (MCF7) µg of Flag-tagged PRDM9/PRDM9 catalytic mutant (Y357S) and 0.8 or 0.6 µg of empty vector using JetPRIME® transfection reagent, following manufacturer instructions. After 4 h media was removed and cells were treated with compounds for 20 h. Next day, cells were lysed in lysis buffer (20 mM Tris-HCl pH 8, 150 mM NaCl, 1 mM EDTA, 10 mM MgCl2, 0.5% TritonX-100, 12.5 U mL^−1 benzonase (Sigma), complete EDTA-free protease inhibitor cocktail (Roche)). After 2 min incubation at RT, SDS was added to final 1% concentration. Cell lysates were analyzed in western blot for GFP and H3K4me3 levels. All cell lines were mycoplasma negative, as determined by MycoAlert™ Mycoplasma Detection Kit (Lonza).
Total cell lysates were resolved in 4–12% Bis-Tris Protein Gels (Invitrogen) and transferred in for 1.5 h (80 V) onto PVDF membrane (Millipore) in Tris-Glycine transfer buffer containing 20% MeOH and 0.05% SDS. Blots were blocked for 1 h in blocking buffer (5% milk in PBS) and incubated with primary antibodies anti-GFP (1:3000, Clontech # 632381), anti-H3K4me3 (1:1000, Millipore, #04-745), anti-histone H3 (1:2000, #ab10799, Abcam), anti-Flag (1:5000, #F4799, Sigma) in blocking buffer (5% BSA in 0.1% Tween 20 PBS) overnight at 4 °C. After five washes with 0.1% Tween 20 PBS the blots were incubated with goat-anti rabbit (IR800) and donkey anti-mouse (IR 680) antibodies (1:5000) in Odyssey Blocking Buffer (LiCor) for 1 h at RT and washed five times with 0.1% Tween 20 PBS. The signal was read on an Odyssey scanner (LiCor) at 800 nm and 700 nm and analyzed with Image Studio Ver.5.2 software. […]
exogenous histone H3 in MCF7 cells. […]
dependent K4 trimethylation of exogenous histone H3 in MCF7 cells. Cells were co-transfected with H3-GFP and PRDM9-FLAG and treated with compounds at indicated concentrations for 20 h. (b) The graph represents non-linear fit of H3K4me3 fluorescence intensities normalized to intensities of GFP. The results are from two independent experiments (n=2). Source data are provided as a Source Data file.
(1 picture or pasted object on this page, not shown here)

Q: How did the “Binding to PRDM9 in the presence of SAH, compared with SAM (in words)” value ([1]; 750 µM SAH versus 350 µM SAM) turn out when `COc1cc(OC)cc(-c2noc(N3CCN(C)C4(CCN(c5ccnc(C)c5)CC4)C3)n2)c1` [MRK-740] was run?
A: dramatically weaker

Q: And the “SPR steady state response, raw data (Y)” value ([1]; X = 1.11E-07 (concentration, unit not given))?
A: 22.0666 and 21.2987 and 20.382 and 19.6958

Q: What about the “SPR steady state response, raw data (Y)” value ([1]; X = 1.23E-08 (concentration, unit not given)) of the same molecule?
A: 5.847 and 5.521 and 5.156 and 5.206

Q: And the “SPR steady state response, raw data (Y)” value ([1]; X = 3.70E-08 (concentration, unit not given))?
A: 12.6421 and 12.2536 and 11.7778 and 11.3155

Q: What about the kon ([1]; in the presence of 350 µM SAM) of the same molecule?
A: 1.2e+06 ± 1e+11 M⁻¹ s⁻¹

Q: And the Kd ([1]; in the presence of 350 µM SAM, n = 4, read-out: Kd, SPR kinetic fit)?
A: 87 ± 5 nM

Q: And the “H3K4me3/GFP - western blot” value (PRDM9; 0.256 µM)?
A: 72.3313 % control and 76.4161 % control

Q: And the “H3K4me3/GFP - western blot” value (PRDM9; 0.64 µM)?
A: 45.8788 % control and 51.2576 % control

Q: What about the “H3K4me3/GFP - western blot” value (PRDM9; 1.6 µM) of the same molecule?
A: 25.9658 % control and 41.0483 % control

Q: What about the “H3K4me3/GFP - western blot” value (PRDM9; 4 µM) of the same molecule?
A: 12.0678 % control and 16.7081 % control

Q: And the “H3K4me3/GFP - western blot” value (PRDM9; 10 µM)?
A: 8.819 % control and 7.277 % control

Q: What about the “Inhibition of H3K4 methylation in MCF7 cells, compared with HEK293T (in words)” value (PRDM9; 20 h) of the same molecule?
A: equipotent inhibitor of H3K4 methylation

Reference: publication PMC6917776, “Discovery of a chemical probe for PRDM9” (Nature Communications, 2019)
